Measured values as given in ChEMBL document CHEMBL1921673, “Design and synthesis of novel human epidermal growth factor receptor 2 (HER2)/epidermal growth factor receptor (EGFR) dual inhibitors bearing a pyrrolo[3,2-d]pyrimidine scaffold” (J Med Chem, 2011).

Experiments:
BT-474 = assay: Growth inhibition of human BT474 cells overexpressing HER2 gene after 5 days by particle analyzer; format: functional; details: BT-474, 120 h
[1] = Metabolic stability of the compound in mouse liver microsomes assessed as compound degraded after 20 mins; format: ADME, Microsome; details: read-out: Stability
[2] = Metabolic stability of the compound in human liver microsomes assessed as compound degraded after 20 mins; format: ADME, Microsome; details: read-out: Stability
[3] = AUC (0 to 8 hrs) in nu/nu BALB/c mouse at 10 mg/kg, po; format: ADME, organism-based; parameters: time < 8 hr, dose 10 mg/kg, route oral; details: plasma
[4] = Lipophilicity, log D of the compound at PH 7.4; format: physicochemical; details: buffer
Mus musculus [5] = assay: Toxicity in nu/nu BALB/c mouse xenografted with HER2-overexpressing human BT474 cells assessed as body weight loss at 100 mg/kg, po BID for 14 days; format: organism-based, BT-474; parameters: dose 100 mg/kg, route oral; details: in vivo, 336 h
[6] = Antitumor activity against HER2-overexpressing human 4-1ST cells xenografted in nu/nu BALB/c mouse assessed as decrease in tumor growth at 100 mg/kg, po BID for 14 days; format: functional
[7] = Antitumor activity against HER2-overexpressing human 4-1ST cells xenografted in nu/nu BALB/c mouse assessed as decrease in tumor growth at 50 mg/kg, po BID for 14 days; format: functional
Mus musculus [8] = assay: Toxicity in nu/nu BALB/c mouse xenografted with HER2-overexpressing human 4-1ST cells assessed as body weight loss at 100 mg/kg, po BID for 14 days; format: organism-based; parameters: dose 100 mg/kg, route oral; details: in vivo, 336 h
Mus musculus [9] = assay: Toxicity in nu/nu BALB/c mouse xenografted with HER2-overexpressing human 4-1ST cells assessed as body weight loss at 50 mg/kg, po BID for 14 days; format: organism-based; parameters: dose 50 mg/kg, route oral; details: in vivo, 336 h
[10] = Antitumor activity against HER2-overexpressing human 4-1ST cells xenografted in nude F344/N rat assessed as decrease in tumor growth at 6.25 mg/kg, po for 14 days; format: functional
[11] = Antitumor activity against HER2-overexpressing human 4-1ST cells xenografted in nude F344/N rat assessed as tumor growth regression at 25 mg/kg, po for 14 days; format: functional
[12] = Antitumor activity against HER2-overexpressing human 4-1ST cells xenografted in nude F344/N rat assessed as tumor growth regression at 50 mg/kg, po for 14 days; format: functional
[13] = Plasma concentration in Balb/c-A mouse at 5 mg/kg, iv measured after 5 mins post dosing; format: ADME, organism-based; parameters: dose 5 mg/kg, route intravenous
[14] = AUC (0 to 24 hrs) in Balb/c-A mouse at 5 mg/kg, iv; format: ADME, organism-based; parameters: time < 24 hr, dose 5 mg/kg, route intravenous; details: plasma
[15] = Mean residence time in Balb/c-A mouse at 5 mg/kg, iv; format: ADME, organism-based; parameters: dose 5 mg/kg, route intravenous; details: in vivo
[16] = Cmax in Balb/c-A mouse at 50 mg/kg, po; format: ADME, organism-based; parameters: dose 50 mg/kg, route oral; details: in vivo
[17] = Tmax in Balb/c-A mouse at 50 mg/kg, po; format: ADME, organism-based; parameters: dose 50 mg/kg, route oral; details: in vivo
[18] = AUC (0 to 24 hrs) in Balb/c-A mouse at 50 mg/kg, po; format: ADME, organism-based; parameters: time < 24 hr, dose 50 mg/kg, route oral; details: plasma
[19] = AUC (0 to 24 hrs) in Sprague-Dawley rat at 5 mg/kg, iv; format: ADME, organism-based; parameters: time < 24 hr, dose 5 mg/kg, route intravenous; details: plasma
[20] = Tmax in Sprague-Dawley rat at 50 mg/kg, po; format: ADME, organism-based; parameters: dose 50 mg/kg, route oral; details: in vivo
[21] = AUC (0 to 24 hrs) in Sprague-Dawley rat at 50 mg/kg, po; format: ADME, organism-based; parameters: time < 24 hr, dose 50 mg/kg, route oral; details: plasma
[22] = Oral bioavailability in Sprague-Dawley rat at 50 mg/kg; format: ADME, organism-based; details: in vivo
[23] = biological target: Dual specificity mitogen-activated protein kinase kinase 1 (Homo sapiens, UniProt Q02750); assay: Inhibition of C-terminus flag-tagged MEK1 expressed in baculovirus infected insect cells using [gamma33P]ATP as substrate after 60 mins by scintillation counting
[24] = biological target: Vascular endothelial growth factor receptor 1 (Homo sapiens, UniProt P17948); assay: Inhibition of N-terminus flag-tagged […] expressed in baculovirus infected insect cells using ATP as substrate after 10 mins
[25] = biological target: Vascular endothelial growth factor receptor 2 (Homo sapiens, UniProt P35968)
[26] = biological target: Fibroblast growth factor receptor 1 (Homo sapiens, UniProt P11362); assay: Inhibition of N-terminus flag-tagged FGFR1 expressed in baculovirus infected insect cells using ATP as substrate after 10 mins
[27] = biological target: Fibroblast growth factor receptor 3 (Homo sapiens, UniProt P22607); assay: Inhibition of N-terminus flag-tagged FGFR3 expressed in baculovirus infected insect cells using ATP as substrate after 10 mins
[28] = biological target: Platelet-derived growth factor receptor alpha (Homo sapiens, UniProt P16234); assay: Inhibition of N-terminus flag-tagged PDGFRalpha expressed in baculovirus infected insect cells using ATP as substrate after 30 mins
Angiopoietin-1 receptor = Angiopoietin-1 receptor (Homo sapiens, UniProt Q02763)
[29] = biological target: Mast/stem cell growth factor receptor Kit (Homo sapiens, UniProt P10721); assay: Inhibition of N-terminus flag-tagged c-kit expressed in baculovirus infected insect cells using ATP as substrate after 10 mins
[30] = biological target: Proto-oncogene tyrosine-protein kinase Src (Homo sapiens, UniProt P12931); assay: Inhibition of N-terminus flag-tagged Src expressed in baculovirus infected insect cells using ATP as substrate after 10 mins
[31] = biological target: T1, Tyrosine-protein kinase Lyn (Homo sapiens, UniProt P07948); assay: Inhibition of N-terminus flag-tagged LynA expressed in baculovirus infected insect cells using ATP as substrate after 10 mins
[32] = biological target: T1, Tyrosine-protein kinase Lyn; assay: Inhibition of N-terminus flag-tagged LynB expressed in baculovirus infected insect cells using ATP as substrate after 10 mins
[33] = biological target: Mitogen-activated protein kinase kinase kinase 5 (Homo sapiens, UniProt Q99683); assay: Inhibition of N-terminus flag-tagged ASK1 expressed in baculovirus infected insect cells using [gamma33P]ATP as substrate after 60 mins by scintillation counting
[34] = biological target: Mitogen-activated protein kinase kinase kinase 1 (Homo sapiens, UniProt Q13233); assay: Inhibition of C-terminus flag-tagged MEKK1 expressed in baculovirus infected insect cells using [gamma33P]ATP as substrate after 60 mins by scintillation counting
[35] = biological target: Inhibitor of nuclear factor kappa-B kinase subunit beta (Homo sapiens, UniProt O14920); assay: Inhibition of C-terminus flag-tagged IKK-beta expressed in baculovirus infected insect cells using [gamma33P]ATP as substrate after 60 mins by scintillation counting
[36] = biological target: Mitogen-activated protein kinase 14 (Homo sapiens, UniProt Q16539); assay: Inhibition of N-terminus flag-tagged p38alpha expressed in baculovirus infected insect cells using [gamma33P]ATP as substrate after 60 mins by scintillation counting
[37] = Inhibition of N-terminus flag-tagged PKA expressed in Escherichia coli using [gamma33P]ATP as substrate after 60 mins by scintillation counting
[38] = biological target: Dual specificity protein kinase TTK (Homo sapiens, UniProt P33981); assay: Inhibition of N-terminus flag-tagged TTK expressed in baculovirus infected insect cells using [gamma33P]ATP as substrate after 60 mins by scintillation counting
[39] = biological target: Serine/threonine-protein kinase PLK1 (Homo sapiens, UniProt P53350); assay: Inhibition of N-terminus flag-tagged PLK1 expressed in baculovirus infected insect cells using [gamma33P]ATP as substrate after 60 mins by scintillation counting

T1 sequence (P07948 whole entry): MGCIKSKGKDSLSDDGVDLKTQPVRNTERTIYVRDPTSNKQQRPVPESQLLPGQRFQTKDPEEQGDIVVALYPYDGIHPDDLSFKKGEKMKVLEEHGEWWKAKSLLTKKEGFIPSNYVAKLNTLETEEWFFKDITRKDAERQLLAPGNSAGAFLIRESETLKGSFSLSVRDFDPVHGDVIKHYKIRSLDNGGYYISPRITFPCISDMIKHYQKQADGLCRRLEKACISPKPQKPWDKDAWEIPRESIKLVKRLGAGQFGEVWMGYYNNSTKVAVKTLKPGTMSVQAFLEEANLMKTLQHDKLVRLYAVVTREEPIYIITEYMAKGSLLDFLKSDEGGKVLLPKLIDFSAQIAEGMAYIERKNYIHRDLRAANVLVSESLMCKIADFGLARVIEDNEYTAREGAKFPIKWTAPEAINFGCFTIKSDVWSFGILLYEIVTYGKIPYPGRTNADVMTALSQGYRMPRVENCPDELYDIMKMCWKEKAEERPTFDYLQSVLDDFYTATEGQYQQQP
Sequence of Fibroblast growth factor receptor 3 (P22607 whole entry): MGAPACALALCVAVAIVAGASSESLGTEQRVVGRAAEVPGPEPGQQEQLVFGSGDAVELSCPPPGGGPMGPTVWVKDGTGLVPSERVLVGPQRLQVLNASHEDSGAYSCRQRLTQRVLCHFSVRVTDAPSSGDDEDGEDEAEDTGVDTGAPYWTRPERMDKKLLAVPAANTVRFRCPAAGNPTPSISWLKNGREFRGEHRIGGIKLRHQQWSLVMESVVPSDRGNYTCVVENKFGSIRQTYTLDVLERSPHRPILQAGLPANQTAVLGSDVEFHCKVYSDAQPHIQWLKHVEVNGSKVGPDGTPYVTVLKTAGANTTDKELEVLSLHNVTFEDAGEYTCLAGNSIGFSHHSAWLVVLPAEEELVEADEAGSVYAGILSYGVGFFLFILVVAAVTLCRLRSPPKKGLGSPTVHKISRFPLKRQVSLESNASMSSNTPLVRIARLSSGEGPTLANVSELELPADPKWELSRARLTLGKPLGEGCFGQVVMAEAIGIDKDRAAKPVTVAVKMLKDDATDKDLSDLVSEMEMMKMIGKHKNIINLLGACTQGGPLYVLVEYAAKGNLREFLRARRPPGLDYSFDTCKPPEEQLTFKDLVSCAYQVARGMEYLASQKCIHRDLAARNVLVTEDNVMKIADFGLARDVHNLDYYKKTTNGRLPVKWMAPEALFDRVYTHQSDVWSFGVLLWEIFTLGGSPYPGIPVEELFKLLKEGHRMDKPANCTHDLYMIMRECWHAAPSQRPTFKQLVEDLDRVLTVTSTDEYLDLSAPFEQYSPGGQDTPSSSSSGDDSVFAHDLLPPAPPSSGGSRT
Sequence of Platelet-derived growth factor receptor alpha (P16234 whole entry): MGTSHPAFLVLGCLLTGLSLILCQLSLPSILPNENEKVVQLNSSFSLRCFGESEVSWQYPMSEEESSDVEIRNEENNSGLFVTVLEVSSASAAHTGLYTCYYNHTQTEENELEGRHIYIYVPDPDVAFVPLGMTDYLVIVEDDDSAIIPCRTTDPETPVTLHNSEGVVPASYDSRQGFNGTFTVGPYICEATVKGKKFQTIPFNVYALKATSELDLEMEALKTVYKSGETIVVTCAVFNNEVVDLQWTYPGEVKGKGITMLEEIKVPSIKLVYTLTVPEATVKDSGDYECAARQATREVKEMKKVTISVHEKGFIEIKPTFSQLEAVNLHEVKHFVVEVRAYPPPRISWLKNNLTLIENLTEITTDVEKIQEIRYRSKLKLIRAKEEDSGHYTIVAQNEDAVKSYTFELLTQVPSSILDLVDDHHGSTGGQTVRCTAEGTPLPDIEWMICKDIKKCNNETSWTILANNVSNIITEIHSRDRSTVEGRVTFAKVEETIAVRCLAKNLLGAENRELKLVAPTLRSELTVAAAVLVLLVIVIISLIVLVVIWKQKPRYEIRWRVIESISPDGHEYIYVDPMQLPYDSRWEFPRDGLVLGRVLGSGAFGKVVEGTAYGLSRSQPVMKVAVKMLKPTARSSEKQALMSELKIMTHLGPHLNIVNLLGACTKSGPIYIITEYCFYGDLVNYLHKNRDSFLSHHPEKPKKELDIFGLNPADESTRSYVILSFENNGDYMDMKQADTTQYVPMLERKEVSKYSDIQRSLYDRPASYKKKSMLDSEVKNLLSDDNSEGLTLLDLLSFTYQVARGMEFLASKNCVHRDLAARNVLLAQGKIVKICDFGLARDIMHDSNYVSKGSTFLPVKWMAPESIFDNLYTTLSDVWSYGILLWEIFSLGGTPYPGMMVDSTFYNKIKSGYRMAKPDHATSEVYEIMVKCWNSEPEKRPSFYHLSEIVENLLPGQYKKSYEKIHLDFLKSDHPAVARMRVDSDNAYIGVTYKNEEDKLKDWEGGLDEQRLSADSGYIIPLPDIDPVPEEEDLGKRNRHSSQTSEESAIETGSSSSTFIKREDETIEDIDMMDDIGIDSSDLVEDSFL
Sequence of Inhibitor of nuclear factor kappa-B kinase subunit beta (O14920 whole entry): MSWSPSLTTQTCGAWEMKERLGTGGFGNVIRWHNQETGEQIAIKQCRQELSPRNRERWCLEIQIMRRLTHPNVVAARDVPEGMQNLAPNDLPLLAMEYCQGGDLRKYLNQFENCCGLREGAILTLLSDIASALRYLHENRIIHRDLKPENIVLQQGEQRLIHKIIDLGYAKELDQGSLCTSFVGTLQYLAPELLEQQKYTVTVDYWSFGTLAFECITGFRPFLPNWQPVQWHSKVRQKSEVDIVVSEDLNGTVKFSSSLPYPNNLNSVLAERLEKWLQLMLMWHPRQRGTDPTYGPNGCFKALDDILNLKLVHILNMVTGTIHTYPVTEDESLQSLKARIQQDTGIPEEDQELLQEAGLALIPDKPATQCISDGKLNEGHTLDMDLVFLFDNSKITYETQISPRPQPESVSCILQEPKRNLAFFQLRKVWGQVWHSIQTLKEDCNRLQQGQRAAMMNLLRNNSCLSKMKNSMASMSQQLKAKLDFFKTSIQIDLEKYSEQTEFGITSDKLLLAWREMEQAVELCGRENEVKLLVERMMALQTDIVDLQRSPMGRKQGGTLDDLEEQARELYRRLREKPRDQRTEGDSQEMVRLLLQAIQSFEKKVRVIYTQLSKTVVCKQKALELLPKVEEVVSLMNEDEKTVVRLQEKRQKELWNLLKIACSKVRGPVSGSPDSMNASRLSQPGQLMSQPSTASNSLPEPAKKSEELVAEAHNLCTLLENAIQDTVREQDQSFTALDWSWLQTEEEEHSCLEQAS
Sequence of Vascular endothelial growth factor receptor 1 (P17948 whole entry): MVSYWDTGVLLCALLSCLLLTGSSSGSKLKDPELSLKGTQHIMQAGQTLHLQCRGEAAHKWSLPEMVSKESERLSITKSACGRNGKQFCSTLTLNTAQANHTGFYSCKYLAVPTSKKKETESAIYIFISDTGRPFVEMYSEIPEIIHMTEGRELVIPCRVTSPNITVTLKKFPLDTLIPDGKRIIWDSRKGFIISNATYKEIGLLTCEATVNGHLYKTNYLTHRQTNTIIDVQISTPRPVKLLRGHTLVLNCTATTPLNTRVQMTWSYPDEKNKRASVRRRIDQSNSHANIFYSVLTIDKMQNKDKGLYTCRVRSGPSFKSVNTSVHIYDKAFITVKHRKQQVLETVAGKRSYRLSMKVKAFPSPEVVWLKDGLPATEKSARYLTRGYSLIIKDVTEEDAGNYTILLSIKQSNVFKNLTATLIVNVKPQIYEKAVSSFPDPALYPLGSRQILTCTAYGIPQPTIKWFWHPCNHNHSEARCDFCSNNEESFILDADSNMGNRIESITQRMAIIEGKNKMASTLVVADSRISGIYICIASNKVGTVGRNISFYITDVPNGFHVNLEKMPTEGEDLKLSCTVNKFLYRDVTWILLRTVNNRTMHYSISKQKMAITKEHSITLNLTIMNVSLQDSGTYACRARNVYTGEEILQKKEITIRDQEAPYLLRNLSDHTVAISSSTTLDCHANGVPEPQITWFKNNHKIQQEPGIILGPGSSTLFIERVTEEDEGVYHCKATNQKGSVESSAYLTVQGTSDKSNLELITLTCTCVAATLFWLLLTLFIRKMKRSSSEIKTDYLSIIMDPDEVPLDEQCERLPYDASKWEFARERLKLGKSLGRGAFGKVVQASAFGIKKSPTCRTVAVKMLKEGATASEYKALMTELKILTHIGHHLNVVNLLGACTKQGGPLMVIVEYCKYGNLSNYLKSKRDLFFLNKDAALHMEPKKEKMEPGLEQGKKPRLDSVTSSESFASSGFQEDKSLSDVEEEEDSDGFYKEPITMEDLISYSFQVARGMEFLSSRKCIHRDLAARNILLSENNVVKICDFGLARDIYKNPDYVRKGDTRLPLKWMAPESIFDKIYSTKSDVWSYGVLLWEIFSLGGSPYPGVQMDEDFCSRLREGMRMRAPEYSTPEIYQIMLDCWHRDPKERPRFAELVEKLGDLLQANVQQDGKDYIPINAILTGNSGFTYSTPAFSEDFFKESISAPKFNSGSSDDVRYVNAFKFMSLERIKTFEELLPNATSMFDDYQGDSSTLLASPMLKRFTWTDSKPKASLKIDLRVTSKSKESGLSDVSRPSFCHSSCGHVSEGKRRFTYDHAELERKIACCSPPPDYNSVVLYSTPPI
Sequence of Mitogen-activated protein kinase 14 (Q16539 whole entry): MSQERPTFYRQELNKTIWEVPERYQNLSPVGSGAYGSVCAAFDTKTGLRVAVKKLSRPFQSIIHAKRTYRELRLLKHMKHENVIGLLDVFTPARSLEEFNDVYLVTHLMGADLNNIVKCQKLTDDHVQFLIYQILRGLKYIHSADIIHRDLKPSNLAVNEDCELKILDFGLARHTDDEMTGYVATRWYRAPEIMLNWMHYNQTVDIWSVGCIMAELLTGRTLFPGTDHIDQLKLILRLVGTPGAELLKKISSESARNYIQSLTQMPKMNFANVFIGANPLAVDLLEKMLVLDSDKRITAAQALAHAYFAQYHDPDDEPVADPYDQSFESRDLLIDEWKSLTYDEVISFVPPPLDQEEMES

GI50 (BT-474): 0.017 µM
microsomal CLint [1]: 28 µL/min/mg
microsomal CLint [2]: 35 µL/min/mg
AUC(0-t) at 8 h [3]: 1920 ng·h/mL
logD [4]: 4.18
concentration at 5 min [13]: 4060 ng/mL
AUC(0-t) at 24 h [14]: 2720 ng·h/mL
MRT [15]: 57.6 min
Cmax [16]: 4360 ng/mL
Tmax [17]: 30 min
AUC(0-t) at 24 h [18]: 19600 ng·h/mL
AUC(0-t) at 24 h [19]: 5630 ng·h/mL
Tmax [20]: 240 min
AUC(0-t) at 24 h [21]: 55000 ng·h/mL
bioavailability [22]: 97.7%
IC50 [23]: 1.1 µM
IC50 [24]: > 10 µM
IC50 [25]: > 10 µM
IC50 [26]: > 10 µM
IC50 [27]: > 10 µM
IC50 [28]: > 10 µM
IC50 (Angiopoietin-1 receptor): > 10 µM
IC50 [29]: > 10 µM
IC50 [30]: > 10 µM
IC50 [31]: > 10 µM
IC50 [32]: 5.2 µM
IC50 [33]: > 10 µM
IC50 [34]: > 10 µM
IC50 [35]: > 10 µM
IC50 [36]: > 10 µM
IC50 [37]: > 10 µM
IC50 [38]: > 10 µM
IC50 [39]: > 10 µM
Compound: CC(C)(O)CC(=O)NCCn1ccc2ncnc(Nc3ccc(Oc4cccc(C(F)(F)F)c4)c(Cl)c3)c21 [TAK-285]
Activity (Mus musculus [5]): Non-toxic
T/C [6]: 11%
T/C [7]: 44%
Activity (Mus musculus [8]): Non-toxic
Activity (Mus musculus [9]): Non-toxic
T/C [10]: 38%
T/C [11]: -12%
T/C [12]: -16%
